Assay results taken from publication PMC8213057, “Targeting ALK2: An Open Science Approach to Developing Therapeutics for the Treatment of Diffuse Intrinsic Pontine Glioma” (Journal of Medicinal Chemistry, 2020).
Values joined by “and” are separate entries in the source; they are usually repeats but may differ in a detail not shown here. Identical values can stand only once.

How the values were obtained:
[1] = system: SIK2
[2] = target: CYP2C8
[3] = target: T1, TSSK2 (Homo sapiens, UniProt Q96PF2); assay: biochemical; conditions: read-out: % enzyme activity, 1 μM; Run 1, Run 2
T1 sequence (Q96PF2 1-358): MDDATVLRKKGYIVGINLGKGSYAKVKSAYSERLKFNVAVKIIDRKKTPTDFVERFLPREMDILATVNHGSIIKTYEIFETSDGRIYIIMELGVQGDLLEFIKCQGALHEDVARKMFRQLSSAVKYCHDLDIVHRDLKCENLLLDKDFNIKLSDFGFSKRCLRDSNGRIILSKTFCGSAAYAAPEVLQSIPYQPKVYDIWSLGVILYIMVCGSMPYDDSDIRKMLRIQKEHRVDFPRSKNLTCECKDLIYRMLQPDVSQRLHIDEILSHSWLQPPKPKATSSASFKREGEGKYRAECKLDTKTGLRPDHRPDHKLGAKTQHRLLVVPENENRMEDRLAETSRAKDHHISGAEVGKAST

[4] = target: TRKB (Homo sapiens, UniProt Q16620); conditions: 1 μM; Run 1, Run 2
TRKB, sequence (Q16620 32-822): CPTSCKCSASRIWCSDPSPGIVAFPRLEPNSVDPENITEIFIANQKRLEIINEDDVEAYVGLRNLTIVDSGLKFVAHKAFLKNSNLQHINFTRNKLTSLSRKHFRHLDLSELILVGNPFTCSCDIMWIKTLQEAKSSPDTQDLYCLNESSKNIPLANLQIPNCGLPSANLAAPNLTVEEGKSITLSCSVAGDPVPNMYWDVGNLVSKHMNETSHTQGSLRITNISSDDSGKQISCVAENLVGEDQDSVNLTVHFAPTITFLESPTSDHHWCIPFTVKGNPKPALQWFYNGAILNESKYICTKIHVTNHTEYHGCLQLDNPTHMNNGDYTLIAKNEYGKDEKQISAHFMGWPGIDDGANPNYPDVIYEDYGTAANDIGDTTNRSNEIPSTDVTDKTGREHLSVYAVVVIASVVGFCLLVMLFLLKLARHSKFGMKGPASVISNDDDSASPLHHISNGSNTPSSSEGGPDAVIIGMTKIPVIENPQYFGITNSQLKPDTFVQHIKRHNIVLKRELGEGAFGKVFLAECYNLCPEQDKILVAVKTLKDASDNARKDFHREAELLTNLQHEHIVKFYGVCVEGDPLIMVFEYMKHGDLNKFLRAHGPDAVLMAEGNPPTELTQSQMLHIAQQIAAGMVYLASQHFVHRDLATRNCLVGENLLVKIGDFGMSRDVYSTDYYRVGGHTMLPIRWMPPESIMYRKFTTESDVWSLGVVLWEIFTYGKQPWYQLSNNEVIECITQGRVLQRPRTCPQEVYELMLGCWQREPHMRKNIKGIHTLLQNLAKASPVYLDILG

[5] = target: CK1a1 (Homo sapiens, UniProt P48729); assay: biochemical; conditions: read-out: % enzyme activity, 1 μM; Run 1, Run 2
[6] = target: MRCKb/CDC42BPB (Homo sapiens, UniProt Q9Y5S2); conditions: 1 μM; Run 1, Run 2
MRCKb/CDC42BPB, sequence (Q9Y5S2 whole entry): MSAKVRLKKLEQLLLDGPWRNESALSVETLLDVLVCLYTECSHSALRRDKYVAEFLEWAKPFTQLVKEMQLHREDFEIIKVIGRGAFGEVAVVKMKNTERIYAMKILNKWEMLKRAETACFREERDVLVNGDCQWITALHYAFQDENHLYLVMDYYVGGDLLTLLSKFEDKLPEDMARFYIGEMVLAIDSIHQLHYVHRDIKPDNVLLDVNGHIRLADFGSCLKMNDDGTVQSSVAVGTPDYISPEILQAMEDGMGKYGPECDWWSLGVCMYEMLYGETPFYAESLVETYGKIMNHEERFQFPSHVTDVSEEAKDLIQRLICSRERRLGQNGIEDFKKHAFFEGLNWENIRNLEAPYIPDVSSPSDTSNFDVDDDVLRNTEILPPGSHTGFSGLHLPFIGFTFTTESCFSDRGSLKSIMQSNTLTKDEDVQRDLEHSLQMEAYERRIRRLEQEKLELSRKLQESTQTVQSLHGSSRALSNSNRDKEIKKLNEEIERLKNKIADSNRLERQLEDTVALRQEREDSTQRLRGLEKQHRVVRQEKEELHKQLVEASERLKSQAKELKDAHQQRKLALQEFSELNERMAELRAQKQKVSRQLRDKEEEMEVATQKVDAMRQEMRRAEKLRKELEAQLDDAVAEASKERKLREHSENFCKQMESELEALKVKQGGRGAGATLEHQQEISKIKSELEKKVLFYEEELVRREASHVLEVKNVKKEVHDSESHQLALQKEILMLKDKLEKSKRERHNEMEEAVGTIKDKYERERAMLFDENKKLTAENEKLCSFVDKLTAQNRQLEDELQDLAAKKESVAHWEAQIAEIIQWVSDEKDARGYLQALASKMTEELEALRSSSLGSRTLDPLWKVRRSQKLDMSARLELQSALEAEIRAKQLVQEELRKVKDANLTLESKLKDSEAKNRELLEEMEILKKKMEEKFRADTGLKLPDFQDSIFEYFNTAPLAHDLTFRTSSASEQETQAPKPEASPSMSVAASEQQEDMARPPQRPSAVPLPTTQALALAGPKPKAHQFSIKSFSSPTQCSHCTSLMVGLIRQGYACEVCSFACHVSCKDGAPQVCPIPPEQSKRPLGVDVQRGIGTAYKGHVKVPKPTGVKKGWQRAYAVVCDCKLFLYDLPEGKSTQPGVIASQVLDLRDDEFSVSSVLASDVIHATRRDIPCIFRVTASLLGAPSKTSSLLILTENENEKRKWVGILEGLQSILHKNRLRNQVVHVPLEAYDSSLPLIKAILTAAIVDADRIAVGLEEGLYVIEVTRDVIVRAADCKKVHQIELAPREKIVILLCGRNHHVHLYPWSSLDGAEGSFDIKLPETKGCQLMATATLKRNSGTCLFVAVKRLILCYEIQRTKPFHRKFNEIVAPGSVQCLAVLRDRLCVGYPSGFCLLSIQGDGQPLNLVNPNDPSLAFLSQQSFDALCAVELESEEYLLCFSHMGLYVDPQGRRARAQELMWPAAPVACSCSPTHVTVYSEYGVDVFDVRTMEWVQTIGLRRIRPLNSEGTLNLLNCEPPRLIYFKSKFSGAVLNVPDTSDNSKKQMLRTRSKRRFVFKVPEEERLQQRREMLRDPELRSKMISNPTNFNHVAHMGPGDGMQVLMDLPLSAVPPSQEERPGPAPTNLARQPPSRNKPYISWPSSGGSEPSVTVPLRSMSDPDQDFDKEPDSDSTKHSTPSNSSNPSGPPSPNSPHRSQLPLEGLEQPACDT

[7] = target: ABL2/ARG (Homo sapiens, UniProt P42684); assay: biochemical; conditions: read-out: % enzyme activity, 1 μM; Run 1, Run 2
ABL2/ARG, sequence (P42684 whole entry): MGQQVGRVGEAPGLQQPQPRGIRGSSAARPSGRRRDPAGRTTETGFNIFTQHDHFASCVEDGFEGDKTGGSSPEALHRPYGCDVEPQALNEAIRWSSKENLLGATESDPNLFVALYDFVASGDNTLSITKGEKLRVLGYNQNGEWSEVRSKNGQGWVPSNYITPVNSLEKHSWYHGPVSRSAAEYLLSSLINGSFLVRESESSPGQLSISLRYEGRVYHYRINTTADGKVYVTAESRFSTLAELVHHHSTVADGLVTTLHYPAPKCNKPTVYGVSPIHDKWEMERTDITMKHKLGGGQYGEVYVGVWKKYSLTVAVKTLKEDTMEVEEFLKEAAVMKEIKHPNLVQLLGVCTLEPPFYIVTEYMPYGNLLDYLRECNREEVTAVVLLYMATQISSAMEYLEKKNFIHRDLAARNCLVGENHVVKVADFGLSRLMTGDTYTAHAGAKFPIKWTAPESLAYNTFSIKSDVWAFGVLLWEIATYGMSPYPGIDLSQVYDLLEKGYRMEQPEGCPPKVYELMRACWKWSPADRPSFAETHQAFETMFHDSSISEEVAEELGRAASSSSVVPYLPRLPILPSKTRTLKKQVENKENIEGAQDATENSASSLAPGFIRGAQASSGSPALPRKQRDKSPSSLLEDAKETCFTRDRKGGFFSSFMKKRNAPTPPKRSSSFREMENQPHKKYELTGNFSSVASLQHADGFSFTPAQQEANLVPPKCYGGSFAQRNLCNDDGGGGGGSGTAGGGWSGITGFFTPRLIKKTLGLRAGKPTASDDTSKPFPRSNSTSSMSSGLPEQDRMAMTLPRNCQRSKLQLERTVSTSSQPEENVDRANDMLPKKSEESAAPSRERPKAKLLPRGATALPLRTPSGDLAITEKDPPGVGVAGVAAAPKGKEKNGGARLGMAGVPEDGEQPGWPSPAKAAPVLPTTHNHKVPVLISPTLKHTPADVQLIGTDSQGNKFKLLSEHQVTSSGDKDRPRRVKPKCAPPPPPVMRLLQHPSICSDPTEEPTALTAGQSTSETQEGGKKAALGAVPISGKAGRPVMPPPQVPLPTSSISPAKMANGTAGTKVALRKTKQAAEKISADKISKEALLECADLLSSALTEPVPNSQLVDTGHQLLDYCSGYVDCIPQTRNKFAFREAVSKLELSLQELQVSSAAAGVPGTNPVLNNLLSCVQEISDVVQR

[8] = target: FLT1/VEGFR1 (Homo sapiens, UniProt P17948); conditions: 1 μM; Run 1, Run 2
FLT1/VEGFR1, sequence (P17948 27-1338): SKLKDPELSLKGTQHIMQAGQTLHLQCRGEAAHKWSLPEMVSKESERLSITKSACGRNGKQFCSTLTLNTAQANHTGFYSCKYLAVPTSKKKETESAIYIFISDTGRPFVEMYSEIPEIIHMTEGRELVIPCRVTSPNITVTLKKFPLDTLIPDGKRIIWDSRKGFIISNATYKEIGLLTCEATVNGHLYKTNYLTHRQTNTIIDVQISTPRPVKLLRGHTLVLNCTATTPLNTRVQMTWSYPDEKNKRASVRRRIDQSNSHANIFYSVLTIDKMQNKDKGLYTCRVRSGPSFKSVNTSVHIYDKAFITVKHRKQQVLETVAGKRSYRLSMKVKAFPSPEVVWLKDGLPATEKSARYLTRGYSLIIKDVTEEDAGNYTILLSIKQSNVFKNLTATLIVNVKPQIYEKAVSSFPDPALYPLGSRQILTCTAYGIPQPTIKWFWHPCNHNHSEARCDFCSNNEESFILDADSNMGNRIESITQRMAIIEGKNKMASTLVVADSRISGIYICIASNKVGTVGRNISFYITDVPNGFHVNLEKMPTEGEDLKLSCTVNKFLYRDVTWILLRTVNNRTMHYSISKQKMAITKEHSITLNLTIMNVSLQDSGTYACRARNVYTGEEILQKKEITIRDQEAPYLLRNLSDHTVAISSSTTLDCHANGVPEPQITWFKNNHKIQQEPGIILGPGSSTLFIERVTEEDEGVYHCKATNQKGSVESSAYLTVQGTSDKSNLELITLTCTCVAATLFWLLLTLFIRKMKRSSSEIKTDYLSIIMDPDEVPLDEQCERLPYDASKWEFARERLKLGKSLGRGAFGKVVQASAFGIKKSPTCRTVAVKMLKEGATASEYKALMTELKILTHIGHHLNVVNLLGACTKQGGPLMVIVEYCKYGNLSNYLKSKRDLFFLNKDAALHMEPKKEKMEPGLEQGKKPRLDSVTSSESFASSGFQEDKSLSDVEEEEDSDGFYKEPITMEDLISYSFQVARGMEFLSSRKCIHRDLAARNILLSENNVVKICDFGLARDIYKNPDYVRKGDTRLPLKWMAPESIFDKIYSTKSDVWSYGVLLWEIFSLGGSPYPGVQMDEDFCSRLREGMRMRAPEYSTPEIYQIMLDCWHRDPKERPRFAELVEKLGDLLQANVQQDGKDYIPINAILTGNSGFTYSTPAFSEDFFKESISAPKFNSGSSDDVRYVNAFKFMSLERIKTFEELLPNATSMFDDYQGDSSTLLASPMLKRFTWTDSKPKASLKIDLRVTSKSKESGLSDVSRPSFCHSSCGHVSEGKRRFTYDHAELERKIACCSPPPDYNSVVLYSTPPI

[9] = target: SIK1 (Homo sapiens, UniProt P57059); assay: biochemical; conditions: read-out: % enzyme activity, 1 μM; Run 1, Run 2
[10] = human liver microsomal stability assay; format: in vitro ADME; conditions: human, microsomes, pH 7.4, human liver microsomes, 60 min, 37 °C, read-out: HLM % Remaining at 1h
[11] = target: LIMK2 (Homo sapiens, UniProt P53671); assay: biochemical; conditions: read-out: % enzyme activity, 1 μM; Run 1, Run 2
[12] = target: STK16 (Homo sapiens, UniProt O75716); assay: biochemical; conditions: read-out: % enzyme activity, 1 μM; Run 1, Run 2
[13] = target: T2, PKCmu/PRKD1 (Homo sapiens, UniProt Q15139); assay: biochemical; conditions: read-out: % enzyme activity, 1 μM; Run 1, Run 2
T2 sequence (Q15139 1-912): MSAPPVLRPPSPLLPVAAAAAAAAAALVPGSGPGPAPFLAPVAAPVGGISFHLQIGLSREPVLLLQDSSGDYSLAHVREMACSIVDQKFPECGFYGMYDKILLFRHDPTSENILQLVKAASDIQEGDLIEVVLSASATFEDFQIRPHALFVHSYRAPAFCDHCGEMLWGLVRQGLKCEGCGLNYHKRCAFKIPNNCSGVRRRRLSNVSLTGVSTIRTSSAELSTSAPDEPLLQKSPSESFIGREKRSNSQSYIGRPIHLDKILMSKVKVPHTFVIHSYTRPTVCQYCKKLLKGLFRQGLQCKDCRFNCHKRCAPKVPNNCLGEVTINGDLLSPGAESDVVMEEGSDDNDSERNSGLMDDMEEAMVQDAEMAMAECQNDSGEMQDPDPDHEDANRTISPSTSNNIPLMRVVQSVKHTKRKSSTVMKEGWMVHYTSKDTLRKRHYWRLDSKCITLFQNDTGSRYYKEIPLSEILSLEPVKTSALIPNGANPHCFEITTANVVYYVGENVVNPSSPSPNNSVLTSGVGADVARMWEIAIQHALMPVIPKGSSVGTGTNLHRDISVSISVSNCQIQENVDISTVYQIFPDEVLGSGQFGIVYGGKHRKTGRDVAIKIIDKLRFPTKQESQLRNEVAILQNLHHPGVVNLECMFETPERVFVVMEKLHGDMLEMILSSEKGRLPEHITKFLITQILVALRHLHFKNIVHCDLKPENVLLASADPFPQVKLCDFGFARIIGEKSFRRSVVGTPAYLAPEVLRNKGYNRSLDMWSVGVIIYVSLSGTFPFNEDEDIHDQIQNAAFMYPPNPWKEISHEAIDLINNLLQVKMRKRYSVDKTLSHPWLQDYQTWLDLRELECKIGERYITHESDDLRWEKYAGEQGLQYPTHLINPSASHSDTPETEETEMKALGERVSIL

[14] = target: T3, ITK (Homo sapiens, UniProt Q08881); assay: biochemical; conditions: read-out: % enzyme activity, 1 μM; Run 1, Run 2
T3 sequence (Q08881 1-620): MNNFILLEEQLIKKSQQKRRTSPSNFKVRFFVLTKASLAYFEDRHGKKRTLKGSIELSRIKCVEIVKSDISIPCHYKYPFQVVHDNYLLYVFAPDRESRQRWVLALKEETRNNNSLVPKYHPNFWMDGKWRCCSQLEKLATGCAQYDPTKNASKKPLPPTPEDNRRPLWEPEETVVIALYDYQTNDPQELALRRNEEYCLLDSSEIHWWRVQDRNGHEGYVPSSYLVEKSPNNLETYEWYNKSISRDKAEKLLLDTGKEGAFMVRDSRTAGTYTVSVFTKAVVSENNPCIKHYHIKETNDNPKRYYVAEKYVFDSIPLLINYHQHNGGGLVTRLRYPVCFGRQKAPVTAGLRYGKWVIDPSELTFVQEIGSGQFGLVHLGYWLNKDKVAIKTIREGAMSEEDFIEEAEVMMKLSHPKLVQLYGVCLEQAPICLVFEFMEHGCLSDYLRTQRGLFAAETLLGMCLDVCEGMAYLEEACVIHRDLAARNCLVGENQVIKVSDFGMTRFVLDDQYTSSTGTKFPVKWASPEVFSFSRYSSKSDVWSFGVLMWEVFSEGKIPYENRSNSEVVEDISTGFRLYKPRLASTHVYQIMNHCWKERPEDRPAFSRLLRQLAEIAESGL

COc1cc(-c2cncc(-c3ccc(N4CCN(C)CC4)cc3)c2C)cc(F)c1C(N)=O [Compound 26a, 2-Fluoro-6-methoxy-4-(4-methyl-5-(4-(4-methylpiperazin-1-yl)phenyl)pyridin-3-yl)benzamide]
% enzyme activity at 1 μM [1]: 32% and 30.7% | CYP inhibition [2]: > 50 µM | remaining activity at 1 µM [3]: 100% | % enzyme activity [4]: 99.94% | remaining activity at 1 µM [5]: 96.1% | % enzyme activity [6]: 94.42% | remaining activity at 1 µM [7]: 97.3% | % enzyme activity [8]: 105.29% | remaining activity at 1 µM [9]: 82.9% | remaining at 1 h, 1 μM [10]: 78% | remaining activity at 1 µM [11]: 102% | remaining activity at 1 µM [12]: 107% | remaining activity at 1 µM [13]: 90.1% | remaining activity at 1 µM [14]: 106%

COc1cc(-c2cncc(-c3ccc(N4C[C@@H](C)N(C)[C@@H](C)C4)cc3)c2C)cc(F)c1C(N)=O [Compound 26c, 2-Fluoro-6-methoxy-4-(4-methyl-5-(4-((3R,5S)-3,4,5-trimethylpiperazin-1-yl)phenyl)pyridin-3-yl)benzamide]
% enzyme activity at 1 μM [1]: 43.9% and 43.5% | CYP inhibition [2]: > 50 µM | remaining activity at 1 µM [3]: 100% | % enzyme activity [4]: 98.44% | remaining activity at 1 µM [5]: 100% | % enzyme activity [6]: 99.47% | remaining activity at 1 µM [7]: 97.1% | % enzyme activity [8]: 104.04% | remaining activity at 1 µM [9]: 93.8% | remaining at 1 h, 1 μM [10]: 47.5% | remaining activity at 1 µM [11]: 97.8% | remaining activity at 1 µM [12]: 101% | remaining activity at 1 µM [13]: 97.6% | remaining activity at 1 µM [14]: 102%
